Source: publication PMC7689813 (Journal of Clinical Pharmacology, 2020)
Several values for one entry are separate records, joined by “and”; a condition that tells them apart may be missing. Equal entries are not always repeated. Entries after “also recorded” stand apart in the source; their conditions may differ.

Assays:
CYP3A [1] = test: Clinical DDI study: elagolix 150 mg once daily effect on midazolam; settings: male participants
CYP2B6 = test: Clinical DDI study: elagolix effect on bupropion; format: in vivo, human; settings: for Change in AUC values / Increase in Cmax: single dose bupropion after 10 days of elagolix 300 mg twice daily
P‐gp [2] = molecular target: P‐gp (Homo sapiens, UniProt P08183); test: Clinical DDI study: elagolix effect on digoxin
CYP2C19 [3] = settings: cited from earlier work
[4] = Clinical DDI study: elagolix and fluconazole
[5] = test system: breast cancer resistance protein (BCRP); settings: cited from earlier work
OATP1B1, CYP3A and P‐gp = test: Clinical DDI study: single and multiple dose rifampin effect on elagolix
CYP2C19 [6] = settings: cited from earlier work; remark: listed apart in the source
OATP1B1 = settings: cited from earlier work
P‐gp [7] = settings: cited from earlier work
[8] = cited from earlier work
CYP3A and P‐gp = test: Clinical DDI study: ketoconazole effect on elagolix; format: in vivo, human
OATP1B1/B3 and BCRP = test: Clinical DDI study: elagolix and rosuvastatin; format: in vivo, human; settings: for Increase in rosuvastatin Cmax: first (single) dose of elagolix 300 mg
[9] = Clinical DDI study: elagolix and sertraline
CYP3A [10] = test: Clinical DDI study: elagolix 300 mg twice daily effect on midazolam
CYP3A4 = settings: cited from earlier work
[11] = background; cited from earlier work
[12] = Safety and tolerability in the 9 phase 1 DDI studies; format: in vivo, human; settings: for Participants reporting 1 or more TEAE: ketoconazole study
[13] = either single dose or multiple doses (10 days) of elagolix 200 mg twice daily
[14] = multiple doses of rifampin (dosing for 10 days) vs elagolix alone
[15] = first dose of elagolix 300 mg twice daily, female participants
[16] = multiple doses of elagolix 300 mg twice daily

Chain of P‐gp (Homo sapiens, UniProt P08183) (P08183 whole entry): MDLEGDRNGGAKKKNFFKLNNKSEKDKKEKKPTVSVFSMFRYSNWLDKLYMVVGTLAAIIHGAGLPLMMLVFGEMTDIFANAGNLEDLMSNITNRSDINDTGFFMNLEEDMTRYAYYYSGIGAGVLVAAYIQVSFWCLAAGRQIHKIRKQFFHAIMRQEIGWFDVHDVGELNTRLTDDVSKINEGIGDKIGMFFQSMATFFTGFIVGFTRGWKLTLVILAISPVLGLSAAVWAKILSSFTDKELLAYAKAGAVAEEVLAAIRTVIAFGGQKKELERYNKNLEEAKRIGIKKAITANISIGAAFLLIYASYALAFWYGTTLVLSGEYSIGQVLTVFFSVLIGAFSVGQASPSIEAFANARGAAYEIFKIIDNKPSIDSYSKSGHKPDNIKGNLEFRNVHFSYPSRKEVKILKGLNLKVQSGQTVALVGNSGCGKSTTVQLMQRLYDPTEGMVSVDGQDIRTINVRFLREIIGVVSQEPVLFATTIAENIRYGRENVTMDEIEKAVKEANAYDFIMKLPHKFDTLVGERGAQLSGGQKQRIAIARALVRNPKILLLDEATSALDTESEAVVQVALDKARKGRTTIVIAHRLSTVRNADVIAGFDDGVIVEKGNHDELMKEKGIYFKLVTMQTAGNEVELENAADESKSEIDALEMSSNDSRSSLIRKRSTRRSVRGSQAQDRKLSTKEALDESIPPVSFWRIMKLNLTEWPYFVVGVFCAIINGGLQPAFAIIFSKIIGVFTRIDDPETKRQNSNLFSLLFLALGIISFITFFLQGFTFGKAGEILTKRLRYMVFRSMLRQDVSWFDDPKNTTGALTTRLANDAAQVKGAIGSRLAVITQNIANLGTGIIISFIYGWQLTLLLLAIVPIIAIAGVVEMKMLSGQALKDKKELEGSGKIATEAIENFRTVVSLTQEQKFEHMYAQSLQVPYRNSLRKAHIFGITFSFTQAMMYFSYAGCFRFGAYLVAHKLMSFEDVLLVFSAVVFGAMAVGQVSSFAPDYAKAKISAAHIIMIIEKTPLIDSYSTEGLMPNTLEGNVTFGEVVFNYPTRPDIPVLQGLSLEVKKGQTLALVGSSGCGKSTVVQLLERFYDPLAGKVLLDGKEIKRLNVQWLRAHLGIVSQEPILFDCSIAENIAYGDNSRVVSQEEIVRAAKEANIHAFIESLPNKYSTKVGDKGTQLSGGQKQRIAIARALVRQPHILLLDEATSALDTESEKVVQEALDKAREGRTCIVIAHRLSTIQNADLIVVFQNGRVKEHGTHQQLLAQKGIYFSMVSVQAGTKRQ

OCc1ncc2n1-c1ccc(Cl)cc1C(c1ccccc1F)=NC2 [1‐OH‐midazolam, 1-hydroxymidazolam]
Increase in 1‐OH‐midazolam exposures (CYP3A [1]; elagolix 150 mg once daily): up to 11%

C[C@H]1NC(C)(C)CO[C@]1(O)c1cccc(Cl)c1 [OH‐bupropion, hydroxybupropion]
Change in AUC values (CYP2B6): ≤ 9%
Increase in Cmax (CYP2B6): 32%

CC(NC(C)(C)C)C(=O)c1cccc(Cl)c1 (centres unmarked) [bupropion]
Increase in bupropion PK (CYP2B6; elagolix 300 mg twice daily): ≤ 25%
Change in AUC values (CYP2B6): ≤ 9%
Increase in Cmax (CYP2B6): 25%

C[C@H]1O[C@@H](O[C@H]2[C@@H](O)C[C@H](O[C@H]3[C@@H](O)C[C@H](O[C@H]4CC[C@@]5(C)[C@H](CC[C@@H]6[C@@H]5C[C@@H](O)[C@]5(C)[C@@H](C7=CC(=O)OC7)CC[C@]65O)C4)O[C@@H]3C)O[C@@H]2C)C[C@H](O)[C@@H]1O [digoxin]
Increase in digoxin AUC (P‐gp [2]; [13]): ~30%
Increase in digoxin Cmax (P‐gp [2]; [13]): approximately 70%
Digoxin t½ alone vs in the presence of elagolix (P‐gp [2]; elagolix 200 mg twice daily): similar

COc1cccc(-c2c(C)n(Cc3c(F)cccc3C(F)(F)F)c(=O)n(C[C@H](NCCCC(=O)O)c3ccccc3)c2=O)c1F [elagolix, sodium R‐(+)‐4‐{2‐[5‐(2‐fluoro‐3‐methoxyphenyl)‐3‐(2‐fluoro‐6‐[trifluoromethyl]benzyl)‐4 ‐methyl‐2,6‐dioxo‐3,6‐dihydro‐2H‐pyrimidin‐1‐yl]‐1‐phenylethylamino}butyrate]
In vitro effect on CYP2C19 (CYP2C19 [3]): inhibitor
Increase in elagolix steady‐state Cmax ([4]; 10 days of elagolix 300 mg twice daily, single dose of fluconazole 200 mg): approximately 30%
In vitro effect on BCRP [5]: inhibitor
Increase in elagolix exposures (Cmax and AUC) (OATP1B1, CYP3A and P‐gp; multiple days of rifampin dosing): ≤ 2 fold
Increase in elagolix AUC (OATP1B1, CYP3A and P‐gp; [14]): ~2 fold and 1.7 fold
Increase in elagolix Cmax (OATP1B1, CYP3A and P‐gp; [14]): 2.0 fold
Increase in elagolix exposures (Cmax and AUC) (OATP1B1, CYP3A and P‐gp; single dose of rifampin): < 6 fold and > 4.4 fold
Increase in elagolix Cmax (OATP1B1, CYP3A and P‐gp; with a single dose of rifampin 600 mg vs elagolix alone): 4.4 fold
Classification of elagolix as inhibitor of CYP2C19 (CYP2C19 [6]): weak inhibitor
Classification of elagolix as inhibitor of efflux transporter P‐gp (P‐gp [2]; mechanistic clinical studies): weak inhibitor
In vitro effect on OATP1B1 (OATP1B1): inhibitor
In vitro effect on P‐gp (P‐gp [7]): inhibitor
Excreted unchanged in urine [8]: less than 3%
Plasma exposure of elagolix metabolites relative to the parent compound [8]: less than 3%
Dose proportionality of exposure ([8]; from 100 to 400 mg twice daily): approximately dose proportional
Apparent terminal‐phase elimination half‐life (t½) ([8]; oral): 4 to 6 h
Time to mean maximum observed plasma concentration (Tmax) ([8]; oral): approximately 1 hour
Classification of elagolix as CYP3A (or P‐gp) substrate (CYP3A and P‐gp; based on ketoconazole study vs FDA criterion (≥5‐fold increase)): not considered a sensitive CYP3A substrate
Elagolix half‐life with vs without ketoconazole coadministration (CYP3A and P‐gp; elagolix 150 mg single dose, ketoconazole 400 mg once daily): similar
Effect of rosuvastatin on elagolix exposure (OATP1B1/B3 and BCRP; rosuvastatin 20 mg once daily, elagolix 300 mg twice daily): no effect
Effect of sertraline on elagolix plasma exposures (Cmax and AUC) ([9]; single‐dose 300‐mg elagolix, sertraline 25 mg once daily for 10 days): not affected; also recorded: did not affect
Classification of elagolix as inducer of CYP3A (CYP3A [10]; depending on the dose administered (150 mg once daily, 300 mg twice daily), midazolam studies): weak or moderate inducer; also recorded: weak to moderate inducer
In vitro effect on CYP3A4 (CYP3A4): inducer
In vitro metabolism (enzyme) (CYP3A4): metabolized primarily by the cytochrome P450 (CYP) enzyme CYP3A4
Common adverse reactions associated with elagolix [11]: hot flush, headache, and nausea
Changes in vital sign values, ECG parameters, physical examination findings, laboratory measurements ([12]; across all studies): no clinically significant changes
Most common adverse events assessed as mild and reasonably related to elagolix ([12]; across all studies): hot flush, headache, nausea, and amenorrhea
Severe adverse events (all assessed as not related to elagolix) ([12]; across all studies): 3
Tolerability ([12]; elagolix and coadministered drugs across regimens, 144 female and male participants, 9 phase 1 studies): generally well tolerated
Participants reporting 1 or more TEAE ([12]; elagolix‐alone portion of the test regimen): zero

OC(Cn1cncn1)(Cn1cncn1)c1ccc(F)cc1F [fluconazole]
Changes in exposure on coadministration of elagolix with fluconazole ([4]; abstract summary): No clinically significant changes in exposure
Effect of elagolix on fluconazole exposures (Cmax and AUC) ([4]; elagolix 300 mg twice daily, fluconazole 200 mg single dose): not affected; also recorded: did not affect

CC(=O)N1CCN(c2ccc(OCC3COC(Cn4ccnc4)(c4ccc(Cl)cc4Cl)O3)cc2)CC1 (centres unmarked) [ketoconazole, reference compound]
Participants reporting 1 or more TEAE ([12]; ketoconazole‐alone portion of the test regimen): 82%

Cc1ncc2n1-c1ccc(Cl)cc1C(c1ccccc1F)=NC2 [midazolam]
Increase in midazolam AUC (CYP3A [10]; [15]): ~27%
Increase in midazolam Cmax (CYP3A [10]; [15]): approximately 18%
Decrease in midazolam Cmax (CYP3A [10]; multiple doses of elagolix 300 mg twice daily (11 days of dosing), female participants): approximately 44%
Decrease in midazolam AUC (CYP3A [1]; multiple doses of elagolix 150 mg once daily): ~35%
Decrease in midazolam AUC (CYP3A [1]; single dose of elagolix 150 mg once daily): approximately 21%

CC(C)c1nc(N(C)S(C)(=O)=O)nc(-c2ccc(F)cc2)c1/C=C/[C@@H](O)C[C@@H](O)CC(=O)O [rosuvastatin]
Increase in rosuvastatin Cmax (OATP1B1/B3 and BCRP): approximately 67%
Increase in rosuvastatin Cmax (OATP1B1/B3 and BCRP; listed as Rosuvastatin): 67%
Change in rosuvastatin AUC (OATP1B1/B3 and BCRP; first dose of elagolix 300 mg twice daily): no significant change
Change in rosuvastatin Cmax (steady state) (OATP1B1/B3 and BCRP; [16]): not significantly changed; also recorded: no change

CN[C@H]1CC[C@@H](c2ccc(Cl)c(Cl)c2)c2ccccc21 [sertraline, reference compound]
Changes in exposure on coadministration of elagolix with sertraline ([9]; abstract summary): No clinically significant changes in exposure
Increase in sertraline steady‐state Cmax [9, 16]: 34%
